This test relates to C3H10T1/2 cells. Nature of the test: C3H assay: differentiation of C3H10T1/2 cells by mSHH, measurement of alkaline phosphatase. The conditions noted are these: Mus musculus, read-out: IC50 Ranges. It is filed as cell-based, mouse.
[1] abbreviates: C3H 10T1/2, C3H10T1/2 cells stimulated with mSHH for 72 hours, alkaline phosphatase activity.

Read-outs that look alike come from different tables or passages of the source.

In the case of `Cc1noc(C)c1NC(=O)N1CC(S(=O)(=O)N2CCC(c3coc4cccnc34)CC2)C1` [Compound 135, N-(3,5-dimethyl-1,2-oxazol-4-yl)-3-(4-furo[3,2-b]pyridin-3-ylpiperidin-1-yl)sulfonylaze-tidine-carboxamide], the IC50 (usually the concentration that gives 50% inhibition) under setting [1] was below 10 nM.

With `O=C(OC1CCOCC1)N1CC(S(=O)(=O)N2CCC(c3coc4cccnc34)CC2)C1` [Compound 136, oxan-4-yl 3-(4-furo[3,2-b]pyridin-3-ylpiperidin-1-yl)sulfonylaze-tidine-1-carboxylate], the IC50 under setting [1] was 10 to 100 nM.

Regarding `O=C(N1CCOCC1)N1CC(S(=O)(=O)N2CCC(c3coc4cccnc34)CC2)C1` [Compound 137, [3-(4-furo [3,2-b]pyridin-3-ylpiperidin-1-yl)sulfonylaze-tidin-1-yl]-morpholin-4-ylmethanone], the IC50 under setting [1] lay in the range of 100 to 1000 nM.

In the case of `Cc1noc(C)c1CC(=O)N1CC(S(=O)(=O)N2CCC(c3coc4cccnc34)CC2)C1` [Compound 138, N-2-(3,5-Dimethylisoxazol-4-yl)-acetyl 3-[(4-furo[3,2-b]pyridin-3-yl-1-piperidyl)sulfonyl]azetidine], the IC50 under setting [1] was below 10 nM.

Take `O=C(NC1(C(F)(F)F)CC1)N1CC(S(=O)(=O)N2CCC(c3coc4cccnc34)CC2)C1` [Compound 139, 3-(4-furo[3,2-b]pyridin-3-ylpiperidin-1-yl)sulfonyl-N-[1-(trifluoromethyl)cyclopropyl] azetidine-1-carboxamide]: under setting [1], the IC50 lay in the range of 10 to 100 nM.

In the case of `CC(C)(C)COC(=O)N1CC(S(=O)(=O)N2CCC(c3coc4cccnc34)CC2)C1` [Compound 140, 2,2-dimethylpropyl 3-(4-furo[3,2-b]pyridin-3-ylpiperidin-1-yl)sulfonylaze-tidine-1-carboxylate], the IC50 under setting [1] lay within 10 to 100 nM.

Consider `O=C(OC1CCCCC1)N1CC(S(=O)(=O)N2CCC(c3coc4cccnc34)CC2)C1` [Compound 141, Cyclohexyl 3-[(4-furo[3,2-b]pyridin-3-yl-1-piperidyl)sulfonyl]azetidine-1-carboxylate], for which the IC50 under setting [1] is 10 to 100 nM.

In the case of `COC(=O)c1cnc(N2CC(S(=O)(=O)N3CCC(c4c[nH]c5ncccc45)CC3)C2)o1` [Compound 142, methyl 2-[3-[4-(1H-pyrrolo [2,3-b]pyridin-3-yl)piperidin-1-yl]sulfonylaze-tidin-1-yl]-1,3-oxazole-5-carboxylate], the IC50 under setting [1] is 100 to 1000 nM.

`CN(C)CC(C)(C)OC(=O)N1CC(S(=O)(=O)N2CCC(c3ccncc3)CC2)C1` [Compound 144, [1-(dimethylamino)-2-methylpropan-2-yl]3-(4-pyridin-4-ylpiperidin-1-yl)sulfonylaze-tidine-1-carboxylate]: under setting [1], the IC50 lay within 100 to 1000 nM.

On to `CCN(CC)CC(C)(C)CN1CC(S(=O)(=O)N2CCC(c3c[nH]c4ncccc34)CC2)C1` [Compound 145, N,N-diethyl-2,2-dimethyl-3-[3-[4-(1H-pyrrolo[2,3-b]pyridin-3-yl)piperidin-1-yl]sulfonylaze-tidin-1-yl]propan-1-amine], for which the IC50 under setting [1] lay within 1000 to 10000 nM.

For the molecule `CC(C)(CN1CCOCC1)CN1CC(S(=O)(=O)N2CCC(c3c[nH]c4ncccc34)CC2)C1` [Compound 146], the IC50 under setting [1] was 1000 to 10000 nM.

With `CC(C)C(C(C)C)N1CC(S(=O)(=O)N2CCC(c3c[nH]c4ncccc34)CC2)C1` [Compound 148, 3-[1-[1-(2,4-dimethylpentan-3-yl)azetidin-3-yl]sulfonylpiper-idin-4-yl]-1H-pyrrolo[2,3-b]pyridine], the IC50 under setting [1] lay in the range of 1000 to 10000 nM.

Turning to `COC(=O)N1CC(S(=O)(=O)N2CCC(c3c[nH]c4ncccc34)CC2)C1` [Compound 151, methyl 3-[4-(1H-pyrrolo [2,3-b]pyridin-3-yl)piperidin-1-yl]sulfonylaze-tidine-1-carboxylate], under setting [1], the IC50 was 100 to 1000 nM.

Regarding `COCC(C)(C)OC(=O)N1CC(S(=O)(=O)N2CCC(c3c[nH]c4ncccc34)CC2)C1` [Compound 152, (1-methoxy-2-methylpropan-2-yl) 3-[4-(1H-pyrrolo[2,3-b]pyridin-3-yl)piperidin-1-yl]sulfonylaze-tidine-1-carboxylate], the IC50 under setting [1] was below 10 nM.

For the molecule `CC[C@H](C)OC(=O)N1CC(S(=O)(=O)N2CCC(c3c[nH]c4ncccc34)CC2)C1` [Compound 153, [(2S)-butan-2-yl] 3-[4-(1H-pyrrolo[2,3-b]pyridin-3-yl)piperidin-1-yl]sulfonylaze-tidine-1-carboxylate], the IC50 under setting [1] was 10 to 100 nM.

Take `O=S(=O)(C1CN(c2ncccn2)C1)N1CCC(c2c[nH]c3ncccc23)CC1` [Compound 155, 3-[1-(1-pyrimidin-2-ylazetidin-3-yl)sulfonylpiper-idin-4-yl]-1H-pyrrolo[2,3-b]pyridine]: the IC50 under setting [1] is 100 to 1000 nM.

Regarding `CCN(C(=O)N1CC(S(=O)(=O)N2CCC(c3c[nH]c4ncccc34)CC2)C1)C(C)(C)C` [Compound 156, N-tert-butyl-N-ethyl-3-[4-(1H-pyrrolo[2,3-b]pyridin-3-yl)piperidin-1-yl]sulfonylaze-tidine-1-carboxamide], the IC50 under setting [1] was below 10 nM.

Turning to `O=S(=O)(C1CN(Cc2cccnc2)C1)N1CCC(c2c[nH]c3ncccc23)CC1` [Compound 157, 3-[1-[1-(pyridin-3-ylmethyl)azetidin-3-yl]sulfonylpiper-idin-4-yl]-1H-pyrrolo[2,3-b]pyridine], under setting [1], the IC50 is 1000 to 10000 nM.

In the case of `O=S(=O)(C1CN(C2CCCC2)C1)N1CCC(c2c[nH]c3ncccc23)CC1` [Compound 158], under setting [1], the IC50 fell in the range of 1000 to 10000 nM.

Turning to `CC1(CN2CC(S(=O)(=O)N3CCC(c4c[nH]c5ncccc45)CC3)C2)COC1` [Compound 159, 3-[1-[1-[(3-methyloxetan-3-yl)methyl]azetidin-3-yl]-sulfonylpiper-idin-4-yl]-1H-pyrrolo[2,3-b]pyridine], under setting [1], the IC50 is 1000 to 10000 nM.

Regarding `O=C(OC[C@@H]1CCCO1)N1CC(S(=O)(=O)N2CCC(c3c[nH]c4ncccc34)CC2)C1` [Compound 163, [(2S)-oxolan-2-yl]methyl 3-[4-(1H-pyrrolo[2,3-b]pyridin-3-yl)piperidin-1-yl]sulfonylaze-tidine-1-carboxylate], the IC50 under setting [1] was 10 to 100 nM.

`C[C@@H]1CN(C(=O)N2CC(S(=O)(=O)N3CCC(c4c[nH]c5ncccc45)CC3)C2)C[C@@H](C)O1` [Compound 164, [(2R,6R)-2,6-dimethylmorpholin-4-yl]-[3-[4-(1H-pyrrolo[2,3-b]pyridin-3-yl)piperidin-1-yl]sulfonylaze-tidin-1-yl]methanone]: the IC50 under setting [1] was in the range of 10 to 100 nM.

For `C[C@H]1COC[C@H](C)N1C(=O)N1CC(S(=O)(=O)N2CCC(c3c[nH]c4ncccc34)CC2)C1` [Compound 165, [(3S,5S)-3,5-dimethylmorpholin-4-yl]-[3-[4-(1H-pyrrolo[2,3-b]pyridin-3-yl)piperidin-1-yl]sulfonylaze-tidin-1-yl]methanone], the IC50 under setting [1] lay in the range of 100 to 1000 nM.

Consider `CN(C)C(=O)N1CC(S(=O)(=O)N2CCC(c3c[nH]c4ncccc34)CC2)C1` [Compound 167, N,N-dimethyl-3-[4-(1H-pyrrolo[2,3-b]pyridin-3-yl)piperidin-1-yl]sulfonylaze-tidine-1-carboxamide], for which the IC50 under setting [1] lay within 1000 to 10000 nM.

In the case of `CC1(C)COCC(C)(C)N1C(=O)N1CC(S(=O)(=O)N2CCC(c3c[nH]c4ncccc34)CC2)C1` [Compound 169, [3-[4-(1H-pyrrolo[2,3-b]pyridin-3-yl)piperidin-1 yl]sulfonylaze-tidin-1-yl]-(3,3,5,5-tetramethylmorpholin-4-yl)methanone], the IC50 under setting [1] lay within 10 to 100 nM.

Turning to `C[C@@H]1CN(C(=O)N2CC(S(=O)(=O)N3CCC(c4c[nH]c5ncccc45)CC3)C2)C[C@H](C)O1` [Compound 170], the IC50 (C3H 10T1/2, 72 h) is 10 to 100 nM.

`CC(C)(C)OC(=O)N1CCN(S(=O)(=O)N2CC(S(=O)(=O)N3CCC(c4c[nH]c5ncccc45)CC3)C2)CC1` [Compound 172, tert-butyl 4-[3-[4-(1H-pyrrolo[2,3-b]pyridin-3-yl)piperidin-1-yl]sulfonylaze-tidin-1-yl] sulfonylpiper-azine-1-carboxylate]: the IC50 under setting [1] fell in the range of 10 to 100 nM.

As to `CC(C)N(C(=O)N1CC(S(=O)(=O)N2CCC(c3c[nH]c4ncccc34)CC2)C1)C(C)C` [Compound 173, N,N-Diisopropyl-3-[[4-(1H-pyrrolo[2,3-b]pyridin-3-yl)-1-piperidyl]sulfonyl]azetidine-1-carboxamide], under setting [1], the IC50 was 100 to 1000 nM.

As to `CN(C(=O)N1CC(S(=O)(=O)N2CCC(c3c[nH]c4ncccc34)CC2)C1)C(C)(C)C` [Compound 176, N-tert-butyl-N-methyl-3-[4-(1H-pyrrolo[2,3-b]pyridin-3-yl)piperidin-1-yl]sulfonylaze-tidine-1-carboxamide], the IC50 under setting [1] is below 10 nM.

`CN(Cc1ccco1)C(=O)N1CC(S(=O)(=O)N2CCC(c3c[nH]c4ncccc34)CC2)C1` [Compound 178, N-(2-Furylmethyl)-N-methyl-3-[[4-(1H-pyrrolo[2,3-b]pyridin-3-yl)-1-piperidyl]sulfonyl]azetidine-1-carboxamide]: the IC50 under setting [1] lay within 10 to 100 nM.

For `CC(C)NC(=S)N1CC(S(=O)(=O)N2CCC(c3c[nH]c4ncccc34)CC2)C1` [Compound 179, N-propan-2-yl-3-[4-(1H-pyrrolo[2,3-b]pyridin-3-yl)piperidin-1-yl]sulfonylaze-tidine-1-carbo-thioamide], under setting [1], the IC50 lay in the range of 10 to 100 nM.

In the case of `COC1CCC(OC(=O)N2CC(S(=O)(=O)N3CCC(c4c[nH]c5ncccc45)CC3)C2)CC1` (stereo not shown) [Compound 180, (4-methoxycyclohexyl) 3-[4-(1H-pyrrolo[2,3-b]pyridin-3-yl)piperidin-1-yl]sulfonylaze-tidine-1-carboxylate], under setting [1], the IC50 lay within 10 to 100 nM.

For `O=S(=O)(C1CN(c2ncccc2C2CC2)C1)N1CCC(c2c[nH]c3ncccc23)CC1` [Compound 181, 3-[1-[1-(3-cyclopropylpy-ridin-2-yl)azetidin-3-yl]sulfonylpiper-idin-4-yl]-1H-pyrrolo[2,3-b]pyridine], the IC50 under setting [1] was 10 to 100 nM.

Turning to `O=S(=O)(C1CN(c2ncccc2CO)C1)N1CCC(c2c[nH]c3ncccc23)CC1` [Compound 182, [2-[3-[4-(1H-pyrrolo[2,3-b]pyridin-3-yl)piperidin-1-yl]sulfonylaze-tidin-1-yl]pyridin-3-yl]methanol], the IC50 under setting [1] was in the range of 10 to 100 nM.

The values above are taken from US10961238B2, “Modulators of hedgehog (Hh) signaling pathway” (E-THERAPEUTICS PLC, priority 2016, dated 2021).
